Assay results taken from patent publication US12583839B2, “PD-L1 antagonist compound” (ADLAI NORTYE BIOPHARMA CO., LTD., priority 2019, dated 2026).

molecular target: T1, PD-1/PD-L1 (Homo sapiens, UniProt Q9NZQ7); experiment: Detection of biological activity of PD-1/PD-L1 signaling inhibition at the cellular level (NFAT luciferase reporter, PD-1/NFAT-Reporter-Jurkat cells co-cultured with TCR activator/PD-L1-CHO cells); assay type: cell-based; conditions: PD-1/NFAT-Reporter-Jurkat + TCR activator/PD-L1-CHO co-culture, 6 hours; Atezolizumab as positive control
T1 construct: 60535 (PD-1/NFAT-Reporter-Jurkat); host or cells: CHO cells expressing PD-L1; Jurkat cells expressing PD-1
T1 sequence (Q9NZQ7 19-290): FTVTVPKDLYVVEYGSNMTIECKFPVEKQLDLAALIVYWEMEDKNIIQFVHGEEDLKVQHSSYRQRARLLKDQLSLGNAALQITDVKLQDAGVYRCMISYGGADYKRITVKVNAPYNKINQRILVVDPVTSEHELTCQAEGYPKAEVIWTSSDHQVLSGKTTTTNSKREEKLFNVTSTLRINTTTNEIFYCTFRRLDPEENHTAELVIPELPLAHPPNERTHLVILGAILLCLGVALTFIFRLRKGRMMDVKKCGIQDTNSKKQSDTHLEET
Source text: Detection of Biological Activity of PD-1/PD-L1 Signaling Inhibition at the Cellular Level
This detection method is used for evaluating the biological activity of the compounds described in the present invention at the cellular level.
This detection method uses the luciferase reporter gene method to detect the biological activity of the compound on the inhibition of PD-1/PD-L1 signal at the cellular level. PD-1/NFAT—Reporter—Jurkat cells stably express human PD-1 and express the luciferase reporter gene regulated by NFAT elements; TCR activator/PD-L1-CHO cells stably express human PD-L1 and TCR activator elements. When the two cell lines were co-cultured, the binding of PD-1/PD-L1 inhibited the TCR signaling pathway, thereby inhibiting the expression of the downstream NFAT-controlled luciferase reporter gene. When PD-1/PD-L1 antibody or inhibitor is added, this inhibitory effect is reversed and luciferase is expressed, so that the effect of PD-1/PD-L1 inhibitor on luciferase activity can be detected.
PD-1/NFAT—Reporter—Jurkat cell (Cat: 60535) and TCR activator/PD-L1-CHO cell (Cat: 60536) were purchased from BPS Bioscience. Anti-human PD-L1 antibody (Atezolizumab, Cat: A2004) was purchased from Selleck; luciferase reporter gene expression detection kit (ONE-Glo™ Luciferase Assay System, Cat: E6120) was purchased from Promega; multifunction plate reader (SpectraMax i3x) was purchased from Molecular Devices.
The PD-1/NFAT—Reporter—Jurkat cells and TCR activator/PD-L1-CHO cells were cultured according to the routine cell culture protocol.
TCR activator/PD-L1-CHO cells were harvested and seeded into a 96-well culture plate at 35,000 cells/well in a medium volume of 100 μl and incubated overnight at 37° C. The next day, the medium was discarded, compound was added and incubated for 30 minutes, while a solvent control (dimethyl sulfoxide, DMSO, final concentration of 0.1%) and PD-L1 antibody (Atezolizumab, final concentration of about 10 nM) as positive controls were set. PD-1/NFAT-reporter-Jurkat cells were then added. After culturing for 6 hours, the luciferase activity was detected according to the instructions of the luciferase detection reagent.
Using PD-L1 antibody as a positive control, calculate the inhibition rate of PD-1/PD-L1 binding of the test compound (%)=(chemiluminescence value of compound treated wells/average value of chemiluminescence value of solvent control wells−1)/(average value of chemiluminescence value of PD-L1 antibody well/average value of chemiluminescence value of solvent control well−1)×100%.
According to the above detection method, the compounds of the present invention were evaluated for their biological activity at the cellular level, and the activity results are shown in the following table.

EC50 | Compound
46 nM | COc1cc(Cn2ncc3c(-c4cccc(-c5cc(F)c(CNC[C@@H]6CCC(=O)N6)c(OC)c5)c4Cl)cccc32)c(Cl)cc1CN(C)C12CCC(CC(=O)O)(CC1)CC2 [Compound 160]
273 nM | CCOc1cc(-c2cccc(-c3cccc4c3cnn4Cc3cc(OC)c(CN(C)CC4CCC(C(=O)O)CC4)cc3Cl)c2Cl)ccc1CNC[C@@H]1CCC(=O)N1 (some centres unmarked) [Compound 97]
1010 nM | COc1cc(-c2cccc(-c3ccc(Cl)c4c3cnn4Cc3cc(OC)c(CN[C@@H](CO)C(=O)O)cc3Cl)c2Cl)ccc1CNC[C@@H]1CCC(=O)N1 [Compound 158]
62 nM | COc1cc(-c2cccc(-c3cccc4c3cnn4Cc3cc(OC)c(CN4CC[C@H](CC(=O)O)C4)cc3Cl)c2Cl)ccc1CNC[C@@H]1CCC(=O)N1 [Compound 99]
850 nM | COc1cc(Cn2ncc3c(-c4cccc(-c5ccc(CNC[C@@H]6CCC(=O)N6)c(Cl)c5)c4Cl)cccc32)c(Cl)cc1CN1CC[C@@H](C(=O)O)C1 [Compound 49]
110 nM | COc1cc(-c2cccc(-c3cccc4c3cnn4Cc3cc(OCc4cncc(C#N)c4)c(CN[C@@H](CO)C(=O)OC(C)C)cc3Cl)c2Cl)ccc1CNC[C@@H]1CCC(=O)N1 [Compound 28]
69 nM | COc1cc(Cn2ncc3c(-c4cccc(-c5cc(F)c(CNC[C@@H]6CCCC(=O)N6)c(OC)c5)c4Cl)cccc32)c(Cl)cc1CN(C)C12CCC(C(=O)O)(CC1)CC2 [Compound 168]
591 nM | N#Cc1cncc(COc2cc(Cn3ncc4c(-c5cccc(-c6ccc(CNC[C@@H]7CCC(=O)N7)cn6)c5Cl)cccc43)c(Cl)cc2CN[C@@H](CO)C(=O)O)c1 [Compound 9]
222 nM | COc1cc(-c2cccc(-c3cccc4c3cnn4Cc3cc(N)c(CN(C)[C@H]4CC[C@H](C(=O)O)CC4)cc3Cl)c2Cl)cc(F)c1CNC[C@@H]1CCC(=O)N1 [Compound 173]
34 nM | COc1cc(Cn2ncc3c(-c4cccc(-c5cc(F)c(CNC[C@@H]6CCC(=O)N6)c(OC)c5)c4Cl)cccc32)c(C(F)(F)F)cc1CN(C)[C@H]1CC[C@H](C(=O)O)CC1 [Compound 148]
692 nM | COc1cc(-c2cccc(-c3cccc4c3cnn4Cc3cc(OC)c(CN4CC[C@@H](C(=O)O)C4)cc3Cl)c2Cl)ccc1CN1CC[C@@H](O)C1 [Compound 87]
510 nM | N#Cc1cncc(COc2cc(Cn3ncc4c(-c5cccc(-c6ccc(CCCN7CC[C@@H](O)C7)cc6)c5Cl)cccc43)c(Cl)cc2CN[C@@H](CO)C(=O)O)c1 [Compound 19]
86 nM | CN(Cc1cc(Cl)c(Cn2ncc3c(-c4cccc(-c5ccc(CNC[C@@H]6CCC(=O)N6)cc5)c4Cl)cccc32)cc1OCc1cncc(C#N)c1)[C@@H](CO)C(=O)O [Compound 26]
206 nM | CN(CCO)Cc1ccc(-c2cccc(-c3cccc4c3cnn4Cc3cc(OCc4cncc(C#N)c4)c(CN[C@@H](CO)C(=O)O)cc3Cl)c2Cl)cc1 [Compound 4]
49 nM | COc1cc(Cn2ncc3c(-c4cccc(-c5ccc(CNC[C@@H]6CCC(=O)N6)cc5)c4Cl)cccc32)c([N+](=O)[O-])cc1CN[C@@H](CO)C(=O)O [Compound 76]
208 nM | COc1cc(-c2cccc(-c3cccc4c3cnn4Cc3cc(OC)c(CN(C)C4CCC(C(=O)O)CC4)cc3S(C)(=O)=O)c2Cl)ccc1CNC[C@@H]1CCC(=O)N1 (some centres unmarked) [Compound 103]
28 nM | COc1cc(Cn2ncc3c(-c4cccc(-c5cc(F)c(CNC[C@@H]6CCC(=O)N6)c(OC)c5)c4Cl)cccc32)c(C(F)(F)F)cc1CN(C)[C@H]1C[C@H](C(=O)O)C1 [Compound 149]
393 nM | COc1cc(-c2cccc(-c3c(Cl)ccc4c3cnn4Cc3cc(OC)c(CN[C@@H](CO)C(=O)O)cc3Cl)c2Cl)ccc1CNC[C@@H]1CCC(=O)N1 [Compound 154]
112 nM | COc1cc(CNC[C@@H]2CCC(=O)N2)ccc1-c1cccc(-c2cccc3c2cnn3Cc2cc(OCc3cncc(C#N)c3)c(CN[C@@H](CO)C(=O)O)cc2Cl)c1Cl [Compound 11]
44 nM | COc1cc(Cn2ncc3c(-c4cccc(-c5cc(F)c(CNC[C@@H]6CCC(=O)N6)c(OC)c5)c4Cl)cccc32)c(Cl)cc1CN(C)[C@H]1CC[C@H](O)CC1 [Compound 162]
